# Source: US10709724B2, “Methods of treating mitochondrial dysfunction” (Ecole Polytechnique Federale de Lausanne (EPFL), priority 2011, dated 2020)
# What was measured:
# HEK293T cells = assay: Mitochondrial NAD+ in HEK293T cells; assay type: cell-based, human; conditions: 0.5 mM, 4 hrs
# Protocol: NAD^+ NAM Determination. NAD^+ levels in cultured cells were determined using a commercial kit (Enzychrom™, BioAssays Systems, CA). For tissue samples NAD^+ and NAM levels were determined as described in (Sauve et al., 2005). In brief, to a weighed aliquot of frozen pulverized tissue we added as standards, ^18O-NAD^+ (typically 2.00 nmol) and ^18O-NAM (typically 2.00 nmol). 70 L of ice-cold 7% perchloric acid was then added and the sample was vortexed and sonicated three times, then centrifuged. Clear supernatant was removed and neutralized by additions of 3 M NaOH and 1 M phosphate buffer (pH=9), then centrifuged. Clear supernatant was injected onto HPLC C-18 column with 20 mM ammonium acetate eluent to separate NAD^+ and NAM from other cellular components, NAD^+ and NAM peaks (260 nm absorbance) were collected. Collections were lyophilized to dryness and subjected to MALDI-TOF analysis. For NAD^+ measurement, ratio of intensities for m/z=664 and 666 peaks, corresponding to ^16O- and ^18O-NAD^+ isotopomers, was multiplied by 2.00 nmol and then divided by tissue weight to determine NAD+ concentration in the sample. […] Other NAD metabolites were determined as previously described (Yang and Sauve, Synthesis of nictotinamide riboside and derivatives: effective agents for increasing nictinomide adenine dinucleotide concentrations in mammalian cells. J Med Chem 50, 6458-6461 (2006)).
# C57Bl/6J mice = assay: NAD+ content in mouse tissues after one week of supplemented chow; assay type: in vivo; conditions: 400 mg/kg/day in chow
# Protocol: Animal Experiments. […] In other animal experiments, 8 weeks-old male C57Bl/6J mice were purchased from Charles River and powder chow (D12450B) and high fat (D12492) diets were from Research Diets Inc (New Brunswick, N.J., USA). 80 ml of water per kg of powder CD were used to make food pellets. 40 ml of water per kg of powder HFD were used to make food pellets. […] Mice were housed separately, had ad libitum access to water and food and were kept under a 12 h dark-light cycle. Mice were fed with homemade pellets from 10 weeks of age. […] All animal experiments were carried out according to local national and EU ethical guidelines. To monitor body weight, mice were weighed and the food consumption was measured each week on the same day. In case of PJ34 treatment, mice received each 12 h (at 7:00 and 19:00) 10 mg/kg PJ34 by intraperitoneal injection for 5 continuous days. In all studies animals were killed (at 14:00) either after CO2 inhalation or cervical dislocation after 6 h of fasting (starting at 8:00), and tissues were collected and processed as specified below. […] Plasma insulin and was determined in heparinized plasma samples using specific ELISA kits (Mercodia). Blood samples were collected in heparinized tubes and plasma was isolated after centrifugation. Plasma parameters were measured using a Cobas c111 (Roche Diagnostics). […] The respiratory quotient was the ratio of CO2 production over O2 consumption. During actimetry, beamline crossings were summarized each 15 minutes.
# NAD^+ NAM Determination. NAD^+ levels in cultured cells were determined using a commercial kit (Enzychrom™, BioAssays Systems, CA). […] 70 L of ice-cold 7% perchloric acid was then added and the sample was vortexed and sonicated three times, then centrifuged. Clear supernatant was removed and neutralized by additions of 3 M NaOH and 1 M phosphate buffer (pH=9), then centrifuged. Clear supernatant was injected onto HPLC C-18 column with 20 mM ammonium acetate eluent to separate NAD^+ and NAM from other cellular components, NAD^+ and NAM peaks (260 nm absorbance) were collected. Collections were lyophilized to dryness and subjected to MALDI-TOF analysis. […] Corrections were applied for isotopic abundance.
# C2C12 myotubes = assay: Mitochondrial gene expression, mtDNA and membrane potential in C2C12 myotubes; assay type: cell-based
# Protocol: Cell Culture, Transfection, Adenoviral Infection and Mitochondrial Characterization. HEK293T, MEF and C2C12 cells were cultured in DMEM (4.5 g/l glucose, 10% FCS). PARP-1^+/+ and PARP-1^−/− MEFs were prepared as described in (Menissier-de Murcia et al., 1997). SIRT1 and MEFs were kindly provided by Fred Alt (Chea et al., 2005). SIRT3 MER were established according to standard techniques from conditional SERT3^−/− mice. (Picard, F., Gehin, M., Annicotte, J., Rocchi, S., Champy, M. F., O'Malley, B. W., Chambon, P., and Auwerx, J. (2002). SRC-1 and TIF2 control energy balance between white and brown adipose tissues. Cell 111, 931-941.) Deletion of the SIRT3 gene was induced via infection with adenovirus encoding for the Cre recombinase. HEK293T cells were transfected using JetPei reagent (Polyplus Transfections, Illkirch, France) according to the manufacturer's instructions. C2C12 cells were differentiated in DMEM (4.5 g/L glucose, 2% horse serum) after reaching confluency for 2 days, followed by 2 days of PJ34 treatment (10 μM). PARP-1 shRNA constructs were described in (Shah et al., 2005). Human PARP-1 and siRNAs were obtained from Dharmacon (Thermo Scientific). The adenovirus encoding for FLAG-HA-PGC-1α, control and SIRT1 shRNAs were a kind gift from Pere Puigserver and were used (MOI=100) in C2C12 myotubes as described (Canto et al., 2009). Mitochondrial charge determination was performed as described (Bai et al., 2001) and DNA strand breaks were quantified by TUNEL assays according to the manufacturer's instructions (Millipore).
# mRNA and mtDNA Analysis. Total RNA was prepared using TRIzol (Invitrogen) according to the manufacturer's instructions. RNA was treated with DNase, and 2 μg of RNA was used for reverse transcription (RT). cDNA was purified on QIAquick PCR cleanup columns (Qiagen, Valencia, Calif., USA). 50× diluted cDNA was used for RT-quantitative PCR (RT-VCR) VCR) reactions (Bai et al., 2007). The RT-qPCR reactions were performed using the Light-Cycler system (Roche Applied Science) and a qPCR Supermix (Qiagen) with the primers for mice summarized in Table 1 and 4, and with the primers for worms summarized on Table 7. mtDNA quantification was performed as described (Lagouge et al., 2006) with the primers indicated in Table 2 and 5.
# Mitochondrial DNA Measurement The assay was performed as described (Lagouge et al., 2006). DNA. was extracted using the standard proteinase K digestion following phenol-chloroform extraction. Mitochondrial and genomic DNA was determined using specific primers in qPCR reactions (primers summarized in Table 2 and 5.) and was expressed as percentage of WT.
Structure (SMILES),mitochondrial NAD+ levels in cultured cells (HEK293T cells),NAD+ levels in liver (C57Bl/6J mice),mitochondrial NAD+ levels in mouse liver (C57Bl/6J mice),muscle NAD+ content (C57Bl/6J mice; quadriceps),"mitochondrial DNA content (C2C12 myotubes; 1 μM, 48 h)","mitochondrial membrane potential (C2C12 myotubes; 1 μM, 48 h)","expression of mitochondrial genes (Ndufa2, Ndufa3, MCAD, PDK4, UCP3) (C2C12 myotubes; 48 hrs)",UCP3 mRNA expression with SIRT1 knock-down (C2C12 myotubes; SIRT1 shRNA),mitochondrial gene expression with SIRT1 knock-down (C2C12 myotubes; SIRT1 shRNA)
"NC(=O)c1ccc[n+]([C@@H]2O[C@H](CO)[C@@H](O)[C@H]2O)c1 [NR, nicotinamide riboside]",mitochondrial NAD^+ levels were enhanced,increased NAD^+ levels in liver,mitochondrial NAD^+ levels were enhanced,significantly enhanced muscle NAD^+ content,,,,,
CN(C)CC(=O)Nc1ccc2[nH]c(=O)c3ccccc3c2c1 [PJ34],,,,,higher mitochondrial DNA content,higher mitochondrial potential,increased expression of several mitochondrial genes,persistent increase in UCP3 mRNA expression,largely blunted
